Read-outs that look alike come from different tables or passages of the source.
Tests used:
Cav2.2 = biological target: T1, Cav2.2 (Homo sapiens, UniProt Q00975); assay: HEK assay (whole-cell patch clamp, transiently transfected HEK-293T/17 cells, pulses P1 and P5); format: cell-based; settings: holding potential −100 mV
T1 construct: expressed in transfected cells; host or cells: HEK-293T/17 (transient, FuGENE 6)
Procedure: HEK-293T/17 cells were transiently transfected in a similar manner as described in FuGENE 6 Package Insert Version 7, April 2002, Roche Applied Science, Indianapolis, Ind. The cells were plated at 2.5×10^5 cells in 2 mL in a 6-well plate, incubated for one night, and achieved a ˜30-40% confluence. In a small sterile tube, sufficient serum-free medium was added as diluent for FuGENE Transfection Reagent (Roche Applied Science, Indianapolis, Ind.) to a total volume of 100 μL. To this medium was added 3 μL of FuGENE 6 Reagent. The mixture was tapped gently to mix. To the prediluted FuGENE 6 Reagent was added 2 μg of DNA solution (0.8-2.0 μg/μL). The DNA/Fugene 6 mixture was gently pipeted to mix the contents and incubated for about 15 minutes at room temperature. The complex mixture was then added to the HEK-293T/17 cells, distributed around the well, and swirled to ensure even dispersal. The cells were returned to the incubator for 24 hours. The transfected cells were then replated at density 2.5×10^5 in a 35 mm dish with 5 glass coverslips and grew in low serum (1%) media for 24 hours. Coverslips with isolated cells were then transferred into a chamber, and calcium channel (e.g., L-type, N-type, etc.) current or other currents for counter screening were recorded from the transiently transfected HEK-293T/17 cells.
The whole-cell voltage clamp configuration of the patch clamp technique was employed to evaluate voltage-dependent calcium currents essentially as described by Thompson and Wong (1991), J. Physiol., 439: 671-689, the entire disclosure of which is herein incorporated by reference. To record calcium channel (e.g., L-type, N-type, etc.) currents for evaluation of inhibitory potency of compounds (steady-state concentration-response analysis), five pulses of 20-30 ms voltage steps to about +10 mV (the peak of the current voltage relationship) were delivered at five Hz every 30 second from a holding potential at −100 mV. In order to obtain an estimate of the degree of use-dependent block of the test compounds, IC50 values were determined at the first and fifth pulse of the train (P1 and P5, respectively, in Table 2). Compound evaluations were carried out essentially as described by Sah D. W. and Bean B. P. (1994), Mol. Pharmacol., 45:84-92, the entire disclosure of which is herein incorporated by reference.

[1] = biological target: T2, human Cav2.2 (composed of the subunits α1, β3 and α2δ) (Homo sapiens, UniProt Q00975); assay: FLIPR assay (TSA201 cells stably transfected with human Cav2.2 and human Kir2.3, FLUO-4 Ca2+ signal, KCl depolarization); format: cell-based; settings: 70 mM KCl depolarization, average value
T2 construct: expressed in transfected cells
T2 sequence (Q00975 whole entry): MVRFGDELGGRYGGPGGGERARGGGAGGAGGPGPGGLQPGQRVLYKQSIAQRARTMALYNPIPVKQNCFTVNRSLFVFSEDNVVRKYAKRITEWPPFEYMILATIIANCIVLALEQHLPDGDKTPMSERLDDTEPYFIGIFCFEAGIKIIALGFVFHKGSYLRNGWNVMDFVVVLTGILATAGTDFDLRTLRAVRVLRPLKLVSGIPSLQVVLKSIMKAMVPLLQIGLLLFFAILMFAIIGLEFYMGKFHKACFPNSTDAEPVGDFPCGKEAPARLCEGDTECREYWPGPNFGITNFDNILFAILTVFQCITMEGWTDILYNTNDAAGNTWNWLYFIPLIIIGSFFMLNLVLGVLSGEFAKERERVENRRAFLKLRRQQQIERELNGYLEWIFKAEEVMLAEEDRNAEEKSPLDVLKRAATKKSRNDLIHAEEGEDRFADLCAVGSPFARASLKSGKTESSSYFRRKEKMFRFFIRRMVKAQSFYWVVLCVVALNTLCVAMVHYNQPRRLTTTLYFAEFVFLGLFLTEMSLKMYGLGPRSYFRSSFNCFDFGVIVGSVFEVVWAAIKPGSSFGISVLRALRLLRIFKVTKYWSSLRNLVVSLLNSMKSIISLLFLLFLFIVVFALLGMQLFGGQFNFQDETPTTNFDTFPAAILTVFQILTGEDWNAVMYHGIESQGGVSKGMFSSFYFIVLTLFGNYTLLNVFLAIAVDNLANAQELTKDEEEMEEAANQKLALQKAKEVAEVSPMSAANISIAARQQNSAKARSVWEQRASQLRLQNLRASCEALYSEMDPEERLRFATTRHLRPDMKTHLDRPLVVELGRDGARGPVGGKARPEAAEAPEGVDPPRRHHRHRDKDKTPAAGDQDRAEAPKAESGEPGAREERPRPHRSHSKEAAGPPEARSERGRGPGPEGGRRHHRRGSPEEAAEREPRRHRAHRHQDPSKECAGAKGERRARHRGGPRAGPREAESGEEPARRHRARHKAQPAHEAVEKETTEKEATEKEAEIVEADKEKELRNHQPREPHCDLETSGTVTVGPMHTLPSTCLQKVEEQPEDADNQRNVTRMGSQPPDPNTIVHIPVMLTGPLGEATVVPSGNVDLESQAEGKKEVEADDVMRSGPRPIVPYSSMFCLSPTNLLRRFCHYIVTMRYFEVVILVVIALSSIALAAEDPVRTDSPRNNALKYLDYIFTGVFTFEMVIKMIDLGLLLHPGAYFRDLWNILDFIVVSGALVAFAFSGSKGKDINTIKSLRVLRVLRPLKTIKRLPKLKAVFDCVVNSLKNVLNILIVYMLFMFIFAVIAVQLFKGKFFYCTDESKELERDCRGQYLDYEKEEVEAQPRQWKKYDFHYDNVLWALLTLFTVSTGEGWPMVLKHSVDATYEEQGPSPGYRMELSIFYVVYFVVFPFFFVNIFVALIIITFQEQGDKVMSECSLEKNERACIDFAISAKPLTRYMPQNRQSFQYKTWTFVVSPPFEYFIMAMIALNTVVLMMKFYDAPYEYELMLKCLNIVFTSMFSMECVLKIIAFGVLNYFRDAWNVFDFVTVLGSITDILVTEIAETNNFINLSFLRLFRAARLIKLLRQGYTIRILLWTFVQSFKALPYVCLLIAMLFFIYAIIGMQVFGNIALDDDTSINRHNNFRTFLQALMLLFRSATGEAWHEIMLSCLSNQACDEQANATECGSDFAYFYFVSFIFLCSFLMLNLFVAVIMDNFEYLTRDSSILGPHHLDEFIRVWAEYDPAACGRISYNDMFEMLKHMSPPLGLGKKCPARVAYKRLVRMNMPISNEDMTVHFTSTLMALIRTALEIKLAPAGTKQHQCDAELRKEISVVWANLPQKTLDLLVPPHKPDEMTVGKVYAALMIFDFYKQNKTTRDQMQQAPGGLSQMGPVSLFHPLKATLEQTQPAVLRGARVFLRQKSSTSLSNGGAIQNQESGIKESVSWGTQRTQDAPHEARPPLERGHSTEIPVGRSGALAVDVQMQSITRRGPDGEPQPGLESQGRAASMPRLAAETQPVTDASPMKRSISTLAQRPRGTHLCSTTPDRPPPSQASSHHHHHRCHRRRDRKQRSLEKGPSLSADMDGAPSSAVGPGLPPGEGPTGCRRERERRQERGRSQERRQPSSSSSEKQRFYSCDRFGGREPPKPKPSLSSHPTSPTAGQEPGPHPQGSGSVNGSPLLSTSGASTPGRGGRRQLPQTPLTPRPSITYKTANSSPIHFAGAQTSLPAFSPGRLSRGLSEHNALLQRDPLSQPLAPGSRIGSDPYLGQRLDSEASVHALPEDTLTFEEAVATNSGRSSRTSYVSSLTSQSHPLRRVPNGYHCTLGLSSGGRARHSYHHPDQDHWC
T2 sequence (P54284 whole entry partner): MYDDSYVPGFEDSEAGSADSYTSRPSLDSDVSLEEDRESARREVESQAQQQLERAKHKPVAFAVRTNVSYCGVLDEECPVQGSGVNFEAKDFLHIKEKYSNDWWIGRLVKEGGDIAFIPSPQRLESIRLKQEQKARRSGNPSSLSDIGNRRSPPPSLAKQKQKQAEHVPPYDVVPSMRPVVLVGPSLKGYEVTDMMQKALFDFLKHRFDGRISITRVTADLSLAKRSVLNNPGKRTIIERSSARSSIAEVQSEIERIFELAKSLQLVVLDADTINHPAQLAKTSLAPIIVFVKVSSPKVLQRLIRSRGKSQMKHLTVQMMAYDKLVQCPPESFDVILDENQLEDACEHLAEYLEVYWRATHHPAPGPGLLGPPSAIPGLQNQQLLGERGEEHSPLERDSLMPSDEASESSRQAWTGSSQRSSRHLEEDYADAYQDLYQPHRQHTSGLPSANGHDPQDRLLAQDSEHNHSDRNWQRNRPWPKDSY
T2 sequence (P54289 25-946 partner limits assumed): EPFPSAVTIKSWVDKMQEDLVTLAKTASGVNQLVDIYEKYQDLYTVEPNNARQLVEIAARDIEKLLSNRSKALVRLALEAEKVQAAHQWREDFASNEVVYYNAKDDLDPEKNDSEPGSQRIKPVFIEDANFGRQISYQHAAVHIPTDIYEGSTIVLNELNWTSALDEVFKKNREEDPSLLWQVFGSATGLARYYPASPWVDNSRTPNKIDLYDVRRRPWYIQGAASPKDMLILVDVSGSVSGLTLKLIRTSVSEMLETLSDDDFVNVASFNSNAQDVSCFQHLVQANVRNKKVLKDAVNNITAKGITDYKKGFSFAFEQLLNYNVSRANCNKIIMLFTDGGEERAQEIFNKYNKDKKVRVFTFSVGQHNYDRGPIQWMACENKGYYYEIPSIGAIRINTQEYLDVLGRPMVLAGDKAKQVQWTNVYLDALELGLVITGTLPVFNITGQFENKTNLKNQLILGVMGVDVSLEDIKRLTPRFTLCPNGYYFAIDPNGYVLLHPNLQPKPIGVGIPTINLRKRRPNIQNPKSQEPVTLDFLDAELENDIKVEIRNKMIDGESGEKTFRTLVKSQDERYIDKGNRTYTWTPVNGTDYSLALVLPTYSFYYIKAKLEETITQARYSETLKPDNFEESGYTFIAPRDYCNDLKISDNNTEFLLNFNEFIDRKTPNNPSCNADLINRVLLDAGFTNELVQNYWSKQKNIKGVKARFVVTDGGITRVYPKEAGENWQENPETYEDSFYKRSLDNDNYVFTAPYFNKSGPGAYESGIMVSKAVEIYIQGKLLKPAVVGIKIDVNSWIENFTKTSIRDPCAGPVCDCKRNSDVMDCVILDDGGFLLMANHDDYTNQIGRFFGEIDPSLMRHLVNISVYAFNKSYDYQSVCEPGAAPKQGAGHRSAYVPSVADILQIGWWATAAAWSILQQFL
T2 sequence (P54289 947-1103 partner limits assumed): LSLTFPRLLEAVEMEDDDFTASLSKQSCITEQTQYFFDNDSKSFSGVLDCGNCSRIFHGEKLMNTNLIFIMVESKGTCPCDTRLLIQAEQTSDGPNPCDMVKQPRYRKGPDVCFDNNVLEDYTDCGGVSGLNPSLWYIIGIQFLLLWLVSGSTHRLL
Procedure: TSA201 cells stably transfected with human Cav2.2 (composed of the subunits α1, β3 and α2δ) and human Kir2.3 to enhance the FLIPR Ca^2+ signal were used. These cells were plated on 384-well collagen-coated plates (BD Bioscience, Franklin Lakes, N.J.) at a density of 2×10^4 cells/well one day prior to the FLIPR assay. […] Culture media is removed and replaced with 25 μl of the FLUO-4 dye solution and incubated for one hour at room temperature. The cell plate is then placed on the FLIPR where the dye is aspirated off and replaced with 25 μl of HBSS (Invitrogen, Carlsbad, Calif.). The HBSS is then aspirated and replaced with […] of compound which is diluted in HBSS with 1% DMSO. Compounds are incubated on the cells for 15 minutes. The cells are then depolarized with 25 μl of 140 mM KCl solution (also containing 2 mM CaCl2 and 10 mM HEPES). The final concentration of KCl on the cells is 70 mM.

[2] = fifth pulse (P5) of 5 Hz train, read-out: HEK Cav2.2 P5 IC50
[3] = first pulse (P1) of 5 Hz train, read-out: HEK Cav2.2 P1 IC50

T1 sequence (Q00975 whole entry): as the sequence (Q00975 whole entry) above
T1 sequence (P54284 whole entry partner): as the sequence (P54284 whole entry partner) above
T1 sequence (P54289 25-946 partner limits assumed): as the sequence (P54289 25-946 partner limits assumed) above
T1 sequence (P54289 947-1103 partner limits assumed): as the sequence (P54289 947-1103 partner limits assumed) above

Compound | IC50 (Cav2.2; [2]) | IC50 (Cav2.2; [3]) | IC50 [1]
CCN(c1cccc(CN(C(=O)C(C)(C)C)c2ccc(F)cc2)n1)C1CC1 [Compound 92, N-[6-(Cyclopropyl(ethyl)amino)-pyridin-2-ylmethyl]-N-(4-fluorophenyl)-2,2-dimethyl-propionamide] | 0.8 µM | 1.8 µM | 
CCN(CC)c1ccc(CN(C(=O)/C=C/C(C)C)c2ccc(N(C)C)cc2)cc1 [Compound 94, 4-Methyl-pent-2-enoic acid (4-Diethylaminobenzyl)-(4-dimethylamino-phenyl)-amide] | 0.7 µM | 1.8 µM | 
CCN(CC)c1nc(CN(C(=O)CCC(C)C)c2ccc(N(C)C)cc2)cs1 [Compound 95, 4-Methyl-pentanoic acid (2-diethylamino-thiazol-4-ylmethyl)-(4-dimethylamino-phenyl)-amide] | 2.3 µM | 7.9 µM | 
CCN(CC)c1nc(CN(C(=O)C(C)(C)CC)c2ccc(N(C)C)cc2)cs1 [Compound 96, N-(2-Diethylamino-thiazol-4-ylmethyl)-N-(4-dimethyalmino-phenyl)-2,2-dimethyl-butyramide] | 1.1 µM | 4.5 µM | 
CCN(CC)c1ccc(N(Cc2cccc(N(CC)C3CC3)c2)C(=O)C(C)(C)C)cc1 [Compound 97, N-[3-(Cyclopropyl(ethyl)amino)-benzyl]-N-(4-diethylamino-phenyl)-2,2-dimethyl-propionamide] | 0.4 µM | 1.1 µM | 
CCN(CC)c1ccc(CN(C(=O)CCC(C)C)c2ccc(N)cc2)cc1 [Compound 98, 4-Methyl-pentanoic acid (4-aminophenyl)-(4-Diethylaminobenzyl)-amide] | 1.9 µM | 5.2 µM | 
CCN(CC)c1ccc(CN(C(=O)CCC(C)C)c2ccc(NC)cc2)cc1 [Compound 99, 4-Methyl-pentanoic acid (4-Diethylaminobenzyl)-(4-methylamino-phenyl)-amide] | < 0.1 µM | 4.3 µM | 
CCN(c1ccc(CN(C(=O)C(C)(C)C)c2ccc(N(C)C)cc2)cn1)C1CC1 [Compound 100, N-[6-(Cycloproyl(ethyl)amino)-pyridin-3-ylmethyl]-N-(4-dimethylamino-phenyl)-2,2-dimethyl-propionamide] | 4.3 µM | 8 µM | 
CC(C)(C)OC(=O)N(Cc1csc(-c2ccncc2)n1)c1ccc(F)cc1 [Compound 101, (4-Fluorophenyl)-(2-pyridin-4-yl-thiazol-4-ylmethyl)-carabamic acid tert-butyl ester] | 8.4 µM |  | 
CN1CCN(c2ncc(CN(C(=O)OC(C)(C)C)c3ccc(F)cc3)s2)CC1 [Compound 102, (4-Fluorophenyl)-[2-(4-methyl-piperazin-1-yl)-thiazol-5-ylmethyl]-carbamic acid tert-butyl ester] | 9.6 µM |  | 
O=C(C1CC1)N(Cc1csc(N2CCCCC2)n1)c1ccc(F)cc1 [Compound 107, Cyclopropanecarboxylic acid (4-fluorophenyl)-(2-piperidin-1-yl-thiazol-4-ylmethyl)-amide] | 2.5 µM | 11.1 µM | 
O=C(C1CCCCC1)N(Cc1csc(N2CCOCC2)n1)c1ccc(F)cc1 [Compound 108, Cyclohexanecarboxylic acid (4-fluorophenyl)-(2-morpholin-4-yl-thiazol-4-ylmethyl)-amide] | 3.9 µM | 14.1 µM | 
O=C(C1CCCO1)N(Cc1ccc(N2CCN(c3ccccn3)CC2)nc1)c1ccc(F)cc1 (stereo not drawn) [Compound 109, Tetrahydro-furan-2-carboxylic acid (4-fluorophenyl)-[6-(4-pyridin-2-yl-piperazin-1-yl)-pyridin-3-ylmethyl]-amide] | 2.6 µM | 13.9 µM | 
CN(c1ccc(F)cc1)c1nc(CN(C(=O)C2CCCN2C)c2ccc(F)cc2)cs1 (stereo not drawn) [Compound 114, 1-Methyl-pyrrolidine-2-carboxylic acid (4-fluroophenyl)-{2-[(4-fluorophenyl)-methyl-amino]-thiazol-4-ylmethyl]-amide] | 2.1 µM | 4.8 µM | 
CCN(c1ccc(CN(C(=O)C2CCCN2Cc2ccccc2)c2ccc(F)cc2)cn1)C1CC1 (stereo not drawn) [Compound 115, 1-Benzyl-pyrrolidine-2-carboxylic acid [6-(Cyclopropyl(ethyl)amino)-pyridin-3-ylmethyl]-(4-fluorophenyl)-amide] | 0.6 µM | 2.7 µM | 
CCN(CC)c1ccc(CN(C(=O)[C@@H]2CCCN2)c2ccc(F)cc2)cn1 [Compound 116, N-{[6-(diethylamino)pyridin-3-yl]methyl}-N-(4-fluroophenyl)-L-prolinamide] |  |  | 34.8 µM
CCN(c1ccc(CN(C(=O)[C@@H]2CCCN2)c2ccc(OC)cc2)cc1)C1CC1 [Compound 117, N-{4-[cyclopropyl(ethyl)amino]benzyl}-N-(4-methoxyphenyl)-L-prolinamide] |  |  | 9.7 µM
CCN(c1cccc(CN(C(=O)[C@@H]2CCCN2)c2ccc(F)cc2)c1)C1CC1 [Compound 118, N-{3-[cyclopropyl(ethyl)amino]benzyl}-N-(4-fluorophenyl)-L-prolinamide] |  |  | 3.4 µM
CCN(CC)c1cccc(CN(C(=O)[C@@H]2CCCN2)c2ccc(Cl)cc2)n1 [Compound 119, N-(4-chlorophenyl)-N-{[6-(diethylamino)pyridin-2-yl]methyl}-L-prolinamide] |  |  | 12.2 µM
Cc1cc(F)ccc1N(Cc1cnc(N2CCCCC2)nc1)C(=O)[C@@H]1CCCN1 [Compound 120, N-(4-fluoro-2-methylphenyl)-N-[(2-piperidin-1-ylpyrimidin-5-yl)methyl]-L-prolinamide] |  |  | 13.7 µM
Cc1ccc(N(Cc2cnc(N3CCCC3)s2)C(=O)[C@@H]2CCCN2)cc1 [Compound 121, N-(4-methylphenyl)-N-[(2-pyrrolidin-1-yl-1,3-thiazol-5-yl)methyl]-L-prolinamide] |  |  | 20.9 µM
CCN(c1nc(CN(C(=O)[C@@H]2CCCN2)c2ccc(F)cc2)cs1)C1CC1 [Compound 122, N-({2-[cyclopropyl(ethyl)amino]-1,3-thiazol-4-yl}methyl)-N-(4-fluorophenyl)-L-prolinamide] |  |  | 13.8 µM
CCN(c1nc(CN(C(=O)[C@H]2CCCN2)c2ccc(F)cc2)cs1)C1CC1 [Compound 123, N-({2-[cyclopropyl(ethyl)amino]-1,3-thiazol-4-yl}methyl)-N-(4-fluorophenyl)-D-prolinamide] |  |  | 10.2 µM
CCN(c1nc(CN(C(=O)[C@@H]2CCC(=O)N2)c2ccc(F)cc2)cs1)C1CC1 [Compound 124, N-({2-[cyclopropyl(ethyl)amino]-1,3-thiazol-4-yl}methyl)-N-(4-fluorophenyl)-5-oxo-L-prolinamide] |  |  | 19.7 µM
CN1CCN(c2ccc(CN(C(=O)C3CCCCC3)c3ccc(F)cc3)cn2)CC1 [Compound 125, N-(4-fluorophenyl)-N-{[6-(4-methylpiperazin-1-yl)pyridin-3-yl]methyl}cyclohexanecarboxamide] |  |  | 9.5 µM
CN1CCN(c2ccc(CN(C(=O)NC(C)(C)C)c3ccc(F)cc3)cn2)CC1 [Compound 126, N′-(tert-butyl)-N-(4-fluorophenyl)-N-{[6-(4-methylpiperazin-1-yl)pyridin-3-yl]methyl}urea] |  |  | 30 µM
CC(CC(=O)N(Cc1ccc(N(C)CCc2ccccn2)nc1)c1ccc(F)cc1)C(F)(F)F (stereo not drawn) [Compound 127] |  |  | 2.6 µM
O=C(C1CCCCC1)N(Cc1ccc(N2CCN(c3ccccn3)CC2)nc1)c1ccc(F)cc1 [Compound 128, N-(4-fluorophenyl)-N-{[6-(4-pyridin-2-ylpiperazin-1-yl)pyridin-3-yl]methyl}cyclohexanecarboxamide] |  |  | 9.1 µM
CCN(CC)c1ccc(CN(C(=O)Cc2cccs2)c2ccc(F)cc2)cn1 [Compound 129] |  |  | 1.5 µM
